Reference: PubChem BioAssay AID330 (DTP/NCI, 2004)
Several values for one entry are separate records, joined by “and”; a condition that tells them apart may be missing. Equal entries are not always repeated. Toxic doses and inconclusive results are not listed. The calls were made as follows: active = survival T/C of 150% or more; inactive = T/C below 125% in these data.

Test system: P388 leukemia ip, CD2F1 mice, survival T/C
Assay: NCI In Vivo Anticancer Drug Screen. Data for tumor model P388 Leukemia (intraperitoneal) in CD2F1 (CDF1) mice
Details: endpoint: median survival time, higher = longer survival
Method in brief: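 Mice carrying the transplanted tumor received test compound or vehicle. Survival was recorded in each group, and the value is the treated-group measurement divided by that of the vehicle-treated control group.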

[1] = dose: 60.0 mg/kg/injection, schedule: Q01DX005 (ip), vehicle: saline
[2] = dose: 120.0 mg/kg/injection, schedule: Q01DX005 (ip), vehicle: saline
[3] = dose: 240.0 mg/kg/injection, schedule: Q01DX005 (ip), vehicle: saline
[4] = dose: 50.0 mg/kg/injection, schedule: Q01DX005 (ip), vehicle: Klucel (hydroxypropylcellulose) (HPC)
[5] = dose: 100.0 mg/kg/injection, schedule: Q01DX005 (ip), vehicle: Klucel (hydroxypropylcellulose) (HPC)
[6] = dose: 200.0 mg/kg/injection, schedule: Q01DX005 (ip), vehicle: Klucel (hydroxypropylcellulose) (HPC)

Measured: T/C

COC(=O)Cc1[nH]ncc1C(=O)OC
inactive: [1] 106 % of control | [2] 103 % of control | [3] 96 % of control

Cc1c2ccncc2c(C)c2c1[nH]c1cc(O)ccc12
inactive: dose: 3.13 mg/kg/injection, schedule: Q04DX003 (ip), vehicle: distilled water + Tween-80 104 % of control | dose: 6.25 mg/kg/injection, schedule: Q04DX003 (ip), vehicle: distilled water + Tween-80 108 % of control and 111 % of control | dose: 12.5 mg/kg/injection, schedule: Q04DX003 (ip), vehicle: distilled water + Tween-80 122 % of control

CC(=O)OC(C)(C)/C=C/C(=O)[C@](C)(O)[C@H]1[C@H](O)C[C@@]2(C)[C@@H]3CC=C4[C@@H](C[C@H](O)[C@H](O)C4(C)C)[C@]3(C)C(=O)C[C@]12C
inactive: dose: 5.0 mg/kg/injection, schedule: Q01DX009 (ip), vehicle: saline with Tween-80 107 % of control | dose: 10.0 mg/kg/injection, schedule: Q01DX009 (ip), vehicle: saline with Tween-80 107 % of control | dose: 20.0 mg/kg/injection, schedule: Q01DX009 (ip), vehicle: saline with Tween-80 112 % of control

CC(=O)O.[Cd]
inactive: dose: 1.25 mg/kg/injection, schedule: Q01DX009 (ip), vehicle: saline 95 % of control | dose: 1.25 mg/kg/injection, schedule: Q04DX003 (ip), vehicle: saline 90 % of control | dose: 2.5 mg/kg/injection, schedule: Q01DX009 (ip), vehicle: saline 100 % of control | dose: 2.5 mg/kg/injection, schedule: Q04DX003 (ip), vehicle: saline 90 % of control | dose: 5.0 mg/kg/injection, schedule: Q01DX009 (ip), vehicle: saline 100 % of control | dose: 5.0 mg/kg/injection, schedule: Q04DX003 (ip), vehicle: saline 95 % of control

NC(=S)c1cccc(/C=N/O)n1
inactive: dose: 50.0 mg/kg/injection, schedule: Q04DX003 (ip), vehicle: Klucel (hydroxypropylcellulose) (HPC) 104 % of control | dose: 100.0 mg/kg/injection, schedule: Q04DX003 (ip), vehicle: Klucel (hydroxypropylcellulose) (HPC) 99 % of control | dose: 200.0 mg/kg/injection, schedule: Q04DX003 (ip), vehicle: Klucel (hydroxypropylcellulose) (HPC) 95 % of control

c1ccc2c(c1)[nH]c1c(N3CCOCC3)nnc(N3CCOCC3)c12
inactive: [4] 99 % of control | dose: 60.0 mg/kg/injection, schedule: Q01DX005 (ip), vehicle: saline with Tween-80 103 % of control | [5] 98 % of control | dose: 120.0 mg/kg/injection, schedule: Q01DX005 (ip), vehicle: saline with Tween-80 96 % of control | [6] 98 % of control | dose: 240.0 mg/kg/injection, schedule: Q01DX005 (ip), vehicle: saline with Tween-80 90 % of control

COc1ccc(OC(=O)Nc2cc(Cl)c(OC)cc2OC)c(Cl)c1
inactive: dose: 50.0 mg/kg/injection, schedule: Q01DX009 (ip), vehicle: saline + alcohol 98 % of control | dose: 100.0 mg/kg/injection, schedule: Q01DX009 (ip), vehicle: saline + alcohol 105 % of control | dose: 200.0 mg/kg/injection, schedule: Q01DX009 (ip), vehicle: saline + alcohol 96 % of control

NC(=S)N/N=C\C(CC(O)CO)=N\NC(N)=S (centres undefined)
inactive: dose: 50.0 mg/kg/injection, schedule: Q01DX005 (ip), vehicle: saline with Tween-80 101 % of control | dose: 100.0 mg/kg/injection, schedule: Q01DX005 (ip), vehicle: saline with Tween-80 101 % of control | dose: 200.0 mg/kg/injection, schedule: Q01DX005 (ip), vehicle: saline with Tween-80 93 % of control

C[N+](C)([O-])Cc1ccccc1C[N+](C)(C)[O-]
inactive: [1] 102 % of control | [2] 110 % of control | [3] 112 % of control

CONS(=O)(=O)c1ccccc1C(=O)OC
inactive: [4] 105 % of control | [5] 100 % of control | [6] 103 % of control

COC1/C=C/OC2(C)Oc3c(C)c(O)c4c(O)c(c(/C=N\N(C)C56CC7CC(CC(C7)C5)C6)c(O)c4c3C2=O)NC(=O)C(C)=C/C=C/C(C)C(O)C(C)C(O)C(C)C(OC(C)=O)C1C (centres undefined)
inactive: dose: 60.0 mg/kg/injection, schedule: Q01DX005 (ip), vehicle: Klucel (hydroxypropylcellulose) (HPC) 93 % of control | dose: 120.0 mg/kg/injection, schedule: Q01DX005 (ip), vehicle: Klucel (hydroxypropylcellulose) (HPC) 96 % of control | dose: 240.0 mg/kg/injection, schedule: Q01DX005 (ip), vehicle: Klucel (hydroxypropylcellulose) (HPC) 102 % of control
